Results from patent US9040691B2, “Hydroxymethylaryl-substituted pyrrolotriazines as ALK1 inhibitors” (BAYER INTELLECTUAL PROPERTY GMBH, priority 2011, dated 2015).

Tests used:
ALK1 kinase [1] = target: T1, ALK1 kinase (Homo sapiens (Human), UniProt P37023); test: ALK1 kinase assay (ProQinase protocol); format: biochemical; conditions: ProQinase radiometric assay, casein, γ-33P-ATP
Experimental: B-1b. ALK1 Kinase Assay (ProQinase Protocol)
ALK1 (Invitrogen, Carlsbad, Calif., USA) kinase activity was measured at ProQinase GmbH (Freiburg, Germany) in a radiometric assay using γ-^33P-ATP and casein (Sigma, St. Louis, Mo., USA) as substrate in 96-well PerkinElmer FlashPlates™ (Boston, Mass., USA). The compounds were tested at 10 concentrations in the range of 1×10^−4 M to 3×10^−9 M in a total volume of 50 μl with a final DMSO concentration of 1% each. The assay components were mixed in the order: • 20 μl assay buffer (70 mM HEPES-NaOH, pH 7.5, 3 mM MgCl2, 3 mM MnCl2, 2 μM sodium orthovanadate, 1.2 mM DTT); • 5 μl γ-^33P-ATP (1.0 μM in water, approx. 6×10^5 cpm per well); • 5 μl test compound solution (in 10% DMSO); • […] (200 μg/ml, 1.0 μg/50 μl final concentration)/enzyme (4 μg/ml, 20 ng/50 μl=5.5 nM final concentration) solution (1:1 mixture).
The reaction mixtures were incubated at 30° C. for 60 minutes and stopped by adding 50 μl 2% (v/v) phosphoric acid. The plates were aspirated and washed twice with 200 μl 0.9% (w/v) sodium chloride. Incorporation of ^33Pi was determined with a microplate scintillation counter (Microbeta, Wallac). All assays were performed using a BecicmanCoulter/SAGIAN™ Core System.
Median values obtained from unspecific substrate binding of labelled. ATP were set as background level, while median values measured in the absence of any inhibitor were considered to reflect full activity of ALK1 kinase. The background activity (ba) was subtracted from the full activity (fa) value as well as from the values obtained from the test compound containing samples (test compound activity, tea). The residual activity in the latter was calculated as follows: residual activity (%)=100×[(tca−ba)/(fa−ba)]
The residual activities for each concentration and the compound IC50 values were calculated using Quattro Workflow V3.1.0 (Quattro Research GmbH, Munich, Germany). The fitting model for the IC50 determinations was “Sigmoidal response (variable slope)” with parameters “top” fixed at 100% and “bottom” at 0%. The fitting method used was a least-squares fit.

[2] = test system: hSmad7 mRNA in BMP9-stimulated HUVEC; test: Smad7 target gene induction: HUVEC cell assay and TaqMan expression analysis; format: cell-based, human; conditions: Homo sapiens, 3 h, 1 ng/ml BMP9 for 3 h, Smad7 mRNA by TaqMan
Experimental: B-2b. Smad7 Target Gene Induction: HUVEC Cell Assay and TaqMan Expression Analysis
The in vitro potency of ALK1 inhibitors was tested in a cell-based assay. Bone morphogenetic protein 9 (BMP9) induces Smad7 mRNA expression in human vascular endothelial cells (HUVEC) via activation of ALK1.
1.5×10^4 passage 2 HUVECs (Lonza, Basel, Switzerland) per well were seeded in a 96-well plate in EBM-2 medium containing EGM-2 additives and growth factors (Lonza, CC-3156 and CC-4176). After 4 h, the medium was changed to EBM-2 with 0.2% fetal calf serum (FCS) and the cells were starved for 20 h in a humidified incubator at 37° C., 5% CO2. Test compounds were added at 11 different concentrations between 0 and 10 000 nM one hour prior to stimulation of the cells for 3 h with recombinant human BMP9 protein at 1 ng/ml (dissolved in 4 mM hydrochloric acid, 0.1% BSA at 10 μg/ml; R&D Systems, Minneapolis, Minn., USA, 3209BP). Medium was removed, and the cells were lysed in 100 μl RLT buffer (Qiagen, Hilden, Germany). RNA was isolated using the Qiagen RNeasy 96 Kit (order-No. 74182) according to manufacturer's instructions and eluted from the columns with 65 μl RNAse-free water. Reverse transcription for quantitative RT-PCR was carried out with the Omniscript Kit (Qiagen, 205113) in RNAse-free 96-well round-bottom plates. Per well, 6.8 μl of a reaction master mix containing 2 μl 10×RT-buffer, 2 μl dNTPs (5 mM each), 1.6 μl random primer N6 (125 μM), 0.25 μl Rnase Out (40 U/μl) and 1 μl Omniscript Reverse Transcriptase were added. After addition of 13.2 μl of the RNA/water mixture, plate contents were mixed, incubated for 1 h at 37° C. and the total volume adjusted to 100 μl in each well by addition of 80 μl RNAse-free water.
The quantification of human Smad7 mRNA was carried out on a TaqMan using the Eurogentec qPCR Mastermix Plus (RT-QP2X-03-075+; Cologne, Germany) and employing human L32 as housekeeping reference mRNA. Per qPCR reaction, 2.8 μl primer mix, 10 μl master mix, 2.2 μl water and 5 μl cDNA were added. Thermal cycling parameters were 2 min at 50° C., followed by 10 min at 95° C., followed by 40 cycles of melting at 95° C. for 15 sec and annealing/extending at 60° C. for 1 min.
Smad7 mRNA levels induced by 1 ng/ml BMP9 without the addition of any inhibitor were set at 100% induction, and % inhibition was calculated for each test compound with this value. For each test compound, every value was determined in quadruplicate. The IC50 values were determined using Microsoft Excel. The fitting method used was a weighted, unconstrained ML-fit.

ALK1 kinase [3] = target: T1, ALK1 kinase; test: In vitro enzyme inhibition using scintillation of incorporated radio label (flashplate assay); format: biochemical; conditions: biotinylated α-casein, 33P-ATP, 500 nM ATP
Experimental: B-1a. In Vitro Enzyme Inhibition Using Scintillation of Incorporated Radio Label (Flashplate Assay)
Test compounds diluted in DMSO are mixed with a suitable substrate/co-substrate (here: biotinylated α-casein and ^33P-ATP) in a corresponding assay buffer. Addition of the enzyme of interest (here: ALK1 kinase) starts the enzyme reaction. The enzyme-catalyzed incorporation of radio label into the substrate is measured via scintillation. Incorporated radio label is separated from free radio label via specific binding of the biotinylated substrate to strepavidin-coated microtiter plates (flashplates) and concomitant washing steps. The scintillation signal intensity (counts per minutes, cpm) is proportional to the enzyme activity. Enzyme inhibition results in a decreased signal intensity. IC50 values of the test compounds are determined by cpm-versus-[I] plots.
Reaction buffer contains 50 mM Tris pH 8.0 (Sigma), 1 mM MnCl2 (Sigma), 0.01% Nonidet P40 (Fluka), 0.5× Complete EDTA-free protease inhibitors (Roche; contains a mixture of several protease inhibitors for the inhibition of serine and cysteine (but not metallo-) proteases; 1 tablet contains protease inhibitors sufficient for a 50 ml cell extract; the concentration used in this assay corresponds to 1 tablet in 100 ml).
• 1.) Stop solution: Dulbecco's PBS (PAA, Pasching, Austria), 25 mM EDTA (Sigma), 25 μM ATP (Roche), 0.05% Triton X-100 (Sigma); • 2.) Saturation buffer: Dulbecco's PBS (PAA, Pasching, Austria), 100 μM ATP (Roche), 0.2% Triton X-100 (Sigma); • 3.) Wash buffer: Dulbecco's PBS (PAA, Pasching, Austria). Enzyme Solution:
ALK1 (Invitrogen, Paisley, United Kingdom) stock solution (35.7 ng/μl) is diluted to 4 ng/μl; final concentration in the reaction is 1 ng/μl.
Dephosphorylated α-casein (Sigma) is biotinylated according to the manufacturer's protocol (Pierce, Bonn, Germany) resulting in a stock solution of 61.6 μM. Briefly, EZ-Link® Biotin reagent (sulfosuccinimidyl-6-(biotinamido)hexanoate; Pierce, Bonn, Germany) is added in equal molarity to α-casein and incubated on ice for 2 h. Afterwards, the biotin reagent is removed by dialysis (2×2 h and overnight).
A 100 mM solution of cold (unlabelled) ATP (Roche) is diluted 1:100 before each test. For the substrate mix, α-casein is diluted to 2.22 μM resulting in a final concentration of 1 μM α-casein in the reaction. Additionally, cold ATP is added to give a 1.11 μM solution which results in a final concentration of 500 nM in the reaction.
Radioactive ATP Solution:
The stock solution (9.25 MBq/25 μl of ^33P-ATP; Perkin Elmer, Rodgau, Germany) is diluted to 651.2 Bq/μl.
Compounds are dissolved in 100% DMSO (10 mM stock solution) and diluted to 2 mM. Further dilutions are made stepwise 1:3.16 in DMSO.
A volume of 9 μl substrate solution is provided into each well of a 384 well microliter plate (Greiner Bio-One, Solingen, Germany), 1 μl compound solution and 5 μl of the radioactive ATP solution are added. Enzyme reaction starts with addition of 5 μl of enzyme solution. The mixture is incubated for 60 minutes at room temperature and then stopped by addition of 10 μl stop solution. The 384 well microliter flashplates (Perkin Elmer, Rodgau, Germany) are saturated with 50 μl saturation buffer per well for at least 60 minutes. Subsequently, a volume of 20 μl is discarded and replaced with 20 μl of the stopped ALK1 reaction mixture. Binding of biotinylated substrate to the flashplate is allowed for by overnight incubation at room temperature. Bound substrate is separated from unbound components through repeated washing steps (3×50 μl washing buffer per well). Finally, 50 μl washing buffer is added, and the scintillation signal (cpm) is measured in a suitable counter (Perkin Elmer, Rodgau, Germany).

T1 sequence (P37023 22-503): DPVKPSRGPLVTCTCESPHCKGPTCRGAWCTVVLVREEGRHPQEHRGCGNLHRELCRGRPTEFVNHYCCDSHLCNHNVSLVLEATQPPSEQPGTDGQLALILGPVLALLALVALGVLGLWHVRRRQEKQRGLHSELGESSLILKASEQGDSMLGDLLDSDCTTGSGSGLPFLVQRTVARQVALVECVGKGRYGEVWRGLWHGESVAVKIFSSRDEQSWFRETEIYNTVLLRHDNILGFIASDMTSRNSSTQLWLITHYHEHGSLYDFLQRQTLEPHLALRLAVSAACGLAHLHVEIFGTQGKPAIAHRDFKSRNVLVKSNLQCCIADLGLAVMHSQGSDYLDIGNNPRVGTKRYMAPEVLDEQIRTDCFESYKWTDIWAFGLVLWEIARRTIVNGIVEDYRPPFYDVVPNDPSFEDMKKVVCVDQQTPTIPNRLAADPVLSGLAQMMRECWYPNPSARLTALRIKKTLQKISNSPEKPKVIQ

Row | SMILES | IC50 (ALK1 kinase [1]) | IC50 [2] | IC50 (ALK1 kinase [3])
1 | CCc1cc(-c2cc(C3CCCNC3)n3ncnc(N)c23)cc(F)c1CO (racemic) [Example 38, rac-{4-[4-Amino-7-(piperidin-3-yl)pyrrolo[2,1-f][1,2,4]triazin-5-yl]-2-ethyl-6-fluorophenyl}-methanol] | 4 nM | – | –
2 | CCc1cc(-c2cc(C(O)C3CC3)n3ncnc(N)c23)cc(F)c1CO (racemic) [Example 39, rac-{4-Amino-5-[3-ethyl-5-fluoro-4-(hydroxymethyl)phenyl]pyrrolo[2,1-f][1,2,4]triazin-7-yl}-(cyclopropyl)methanol] | 5.7 nM | 500 nM | –
3 | CCc1cc(-c2cc([C@H]3CC[C@H](O)CC3)n3ncnc(N)c23)cc(F)c1CO [Example 28, trans-4-{4-Amino-5-[3-ethyl-5-fluoro-4-(hydroxymethyl)phenyl]pyrrolo[2,1-f][1,2,4]triazin-7-yl}-cyclohexanol] | 124 nM | – | 170 nM
4 | CCc1cc(-c2cc(C3CCNC3)n3ncnc(N)c23)cc(F)c1CO (racemic) [Example 37, rac-{4-[4-Amino-7-(pyrrolidin-3-yl)pyrrolo[2,1-f][1,2,4]triazin-5-yl]-2-ethyl-6-fluorophenyl}-methanol] | < 3 nM | 330 nM | –
